Laboratory results published in paper PMC9091252 (Nature Communications, 2022).
Values joined by “and” are separate entries in the source; they are usually repeats but may differ in a detail not shown here. Equal entries are not always repeated.

How the values were obtained:
[1] = target: S1 domain of SARS-CoV-2 (Severe acute respiratory syndrome coronavirus 2, UniProt P0DTC2); test: FD-based AFM binding probability of S1-functionalized tip on 9-AcSA, SA or streptavidin coated surfaces
[2] = target: SARS-CoV-2; test: AFM inhibition assay: binding probability between SARS-CoV-2 virions and 9-AcSA coated surfaces before and after incubation with oligomers; details: for relative BP, Mean: mean of 3 tips, 0 uM = 1; for relative BP, single tip: normalized to 0 uM = 1
[3] = target: S1 subunit (Severe acute respiratory syndrome coronavirus 2, UniProt P0DTC2); test: Dynamic force spectroscopy and kinetic on-rate analysis of the S1 – 9-AcSA bond; format: binding, SARS-CoV-2

Compound	binding probability in competition assay with free 9-AcSA ([1]; S1 tip on 9-AcSA surface, free 1 mM 9-AcSA)	difference in binding probability between acetylated and non-acetylated SA ([1]; S1 tip, 9-AcSA versus SA coated surface)	IC50 [2]	relative BP, Mean ([2]; 1 uM)	relative BP, single tip ([2]; 1 uM)	relative BP, Mean ([2]; 10 uM)	relative BP, single tip ([2]; 10 uM)	relative BP, Mean ([2]; 100 uM)	relative BP, single tip ([2]; 100 uM)	reduction in the binding probability ([2]; over the explored range 1, 10, 100 µM)	koff ([3]; Bell-Evans fit, single S1 – 9-AcSA bond)	KD ([3]; ratio between koff and kon)	Kd ([3]; ratio between koff and kon)	relative BP, single tip ([2]; 1 uM, listed as Pillar[5]arene NonAc)	relative BP, single tip ([2]; 10 uM, listed as Pillar[5]arene NonAc)	relative BP, single tip ([2]; 100 uM, listed as Pillar[5]arene NonAc)
9-O-acetylated sialic acid [9-AcSA]	significantly lower BP	~ 3 fold	> 100 µM	0.8501	0.7609 and 0.6994 and 1.09	0.807	0.7029 and 0.638 and 1.08	0.638	0.587 and 0.4969 and 0.83	20-30%	0.24 ± 0.2 s⁻¹	low micromolar range	5.7 ± 5 µM			
CC(=O)N[C@H]1[C@H]([C@H](O)[C@H](O)CO)O[C@@](OCc2cn(CCOc3cc4c(OCCn5cc(CO[C@]6(C(=O)O)C[C@H](O)[C@@H](NC(C)=O)[C@H]([C@H](O)[C@H](O)CO)O6)nn5)cc3Cc3cc(OCCn5cc(CO[C@]6(C(=O)O)C[C@H](O)[C@@H](NC(C)=O)[C@H]([C@H](O)[C@H](O)CO)O6)nn5)c(cc3OCCn3cc(CO[C@]5(C(=O)O)C[C@H](O)[C@@H](NC(C)=O)[C@H]([C@H](O)[C@H](O)CO)O5)nn3)Cc3cc(OCCn5cc(CO[C@]6(C(=O)O)C[C@H](O)[C@@H](NC(C)=O)[C@H]([C@H](O)[C@H](O)CO)O6)nn5)c(cc3OCCn3cc(CO[C@]5(C(=O)O)C[C@H](O)[C@@H](NC(C)=O)[C@H]([C@H](O)[C@H](O)CO)O5)nn3)Cc3cc(OCCn5cc(CO[C@]6(C(=O)O)C[C@H](O)[C@@H](NC(C)=O)[C@H]([C@H](O)[C@H](O)CO)O6)nn5)c(cc3OCCn3cc(CO[C@]5(C(=O)O)C[C@H](O)[C@@H](NC(C)=O)[C@H]([C@H](O)[C@H](O)CO)O5)nn3)Cc3cc(OCCn5cc(CO[C@]6(C(=O)O)C[C@H](O)[C@@H](NC(C)=O)[C@H]([C@H](O)[C@H](O)CO)O6)nn5)c(cc3OCCn3cc(CO[C@]5(C(=O)O)C[C@H](O)[C@@H](NC(C)=O)[C@H]([C@H](O)[C@H](O)CO)O5)nn3)C4)nn2)(C(=O)O)C[C@@H]1O [compound 4]				0.7825		0.836		0.9261						0.6071 and 0.8687 and 0.8718	0.7738 and 0.9394 and 0.7949	0.9286 and 0.9394 and 0.9103
